In ChEMBL document CHEMBL3525952, “A Baeyer-Villiger oxidation specifically catalyzed by human flavin-containing monooxygenase 5” (Drug Metab Dispos, 2011) one finds Drug metabolism data, which are given here for one molecule.

The target of series [1] is T1, Flavin-containing monooxygenase 1 (Homo sapiens, UniProt Q01740).
T1 sequence (Q01740 whole entry): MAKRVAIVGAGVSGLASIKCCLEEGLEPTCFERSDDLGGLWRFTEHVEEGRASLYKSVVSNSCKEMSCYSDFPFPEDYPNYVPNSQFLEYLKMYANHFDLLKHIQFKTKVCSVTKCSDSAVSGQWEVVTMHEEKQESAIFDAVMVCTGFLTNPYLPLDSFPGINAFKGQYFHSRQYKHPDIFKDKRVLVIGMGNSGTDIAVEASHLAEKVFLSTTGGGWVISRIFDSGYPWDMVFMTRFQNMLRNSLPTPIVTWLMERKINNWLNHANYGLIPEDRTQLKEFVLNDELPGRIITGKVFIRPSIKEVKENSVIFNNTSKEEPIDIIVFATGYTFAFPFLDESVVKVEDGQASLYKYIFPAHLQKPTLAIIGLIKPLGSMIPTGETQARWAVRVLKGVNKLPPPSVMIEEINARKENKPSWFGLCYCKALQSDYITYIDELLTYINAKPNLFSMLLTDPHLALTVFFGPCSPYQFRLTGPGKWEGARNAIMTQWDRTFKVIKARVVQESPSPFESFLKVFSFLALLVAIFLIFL
As to the kind of experiment: Drug metabolism assessed as human recombinant FMO1-mediated ER-879123 formation at 10 uM after 60 mins by LC-MS/MS method in presence of NADPH. Type of series: ADME. Conditions: recombinant enzyme, 1 h.

For series [2], the target named is T1, Flavin-containing monooxygenase 1. As to the kind of experiment: Drug metabolism assessed as human recombinant FMO1-mediated ER-879123 formation in presence NADH at 10 uM after 60 mins by LC-MS/MS method. Type of series: ADME. Conditions: recombinant enzyme, 1 h.
The target in series [3] is T2, Flavin-containing monooxygenase 3 (Homo sapiens, UniProt P31513).
T2 sequence (P31513 whole entry): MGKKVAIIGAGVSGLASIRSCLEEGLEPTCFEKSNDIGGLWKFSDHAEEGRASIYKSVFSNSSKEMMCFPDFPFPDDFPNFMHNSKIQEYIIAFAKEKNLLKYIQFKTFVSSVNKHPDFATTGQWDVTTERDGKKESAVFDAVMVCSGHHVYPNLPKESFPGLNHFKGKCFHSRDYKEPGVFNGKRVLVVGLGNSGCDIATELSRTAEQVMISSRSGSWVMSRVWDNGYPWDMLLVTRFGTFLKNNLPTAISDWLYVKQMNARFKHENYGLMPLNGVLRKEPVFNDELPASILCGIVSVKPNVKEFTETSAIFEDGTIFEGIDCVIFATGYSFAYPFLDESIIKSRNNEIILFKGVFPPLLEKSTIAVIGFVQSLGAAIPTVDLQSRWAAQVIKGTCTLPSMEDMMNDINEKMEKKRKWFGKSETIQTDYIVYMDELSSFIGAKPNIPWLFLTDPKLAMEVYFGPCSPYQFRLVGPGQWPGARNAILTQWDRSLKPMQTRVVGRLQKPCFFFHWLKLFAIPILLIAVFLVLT
Kind of series: Drug metabolism assessed as human recombinant FMO3-mediated ER-879123 formation at 10 uM after 60 mins by LC-MS/MS method in presence of NADPH. Type of series: ADME. Particulars: recombinant enzyme, 1 h.

Series [4] has as its target T2, Flavin-containing monooxygenase 3. Kind of series: Drug metabolism assessed as human recombinant FMO3-mediated ER-879123 formation in presence NADH at 10 uM after 60 mins by LC-MS/MS method. In kind it is ADME. Particulars: recombinant enzyme, 1 h.
The test system of series [5] is Liver microsome. Kind of series: Drug metabolism in dog liver microsomes assessed as ER-879123 formation at 10 uM after 60 mins in presence of NADH by LC-MS/MS method. Type of series: ADME, Canis lupus familiaris. Conditions: 1 h.
The test system of series [6] is Liver microsome. Kind of series: Drug metabolism in human liver microsomes assessed as ER-879123 formation at 10 uM after 60 mins in presence of NADH by LC-MS/MS method. In kind it is ADME. Particulars: 1 h.
Series [7] deals with Liver microsome. Kind of series: Drug metabolism in dog liver microsomes assessed as ER-879123 formation at 10 uM after 60 mins in presence of NADH and carboxylesterase inhibitor BNPP by LC-MS/MS method. In kind it is ADME, Canis lupus familiaris. Conditions: 1 h. On the technique in general: Microsomes from liver hold many membrane-bound enzymes, among them those of drug oxidation.

Series [8] concerns Liver microsome. As to the kind of experiment: Drug metabolism in human liver microsomes assessed as ER-879123 formation at 10 uM after 60 mins in presence of NADH and carboxylesterase inhibitor BNPP by LC-MS/MS method. Type of series: ADME. Particulars: 1 h.
In series [9] the test system is Liver microsome. Kind of series: Drug metabolism in dog liver microsomes assessed as ER-879123 formation at 10 uM after 60 mins in presence of NADH and FMO1 and FMO3 substrate/inhibitor methimazole by LC-MS/MS method. Type of series: ADME, Canis lupus familiaris. Particulars: 1 h.
The test system of series [10] is Liver microsome. As to the kind of experiment: Drug metabolism in human liver microsomes assessed as ER-879123 formation at 10 uM after 60 mins in presence of NADH and FMO1 and FMO3 substrate/inhibitor methimazole by LC-MS/MS method. In kind it is ADME. Particulars: 1 h.
Series [11] has as its system Liver microsome. Kind of series: Drug metabolism in 50 degC treated dog liver microsomes assessed as ER-879123 formation at 10 uM after 60 mins in absence of NAD+ by LC-MS/MS method. In kind it is ADME, Canis lupus familiaris. Particulars: 1 h.
In series [12] the test system is Liver microsome. As to the kind of experiment: Drug metabolism in 50 degC treated human liver microsomes assessed as ER-879123 formation at 10 uM after 60 mins in absence of NAD+ by LC-MS/MS method. In kind it is ADME. Conditions: 1 h.
Series [13] has as its target T3, Flavin-containing monooxygenase 5 (Homo sapiens, UniProt P49326).
T3 sequence (P49326 whole entry): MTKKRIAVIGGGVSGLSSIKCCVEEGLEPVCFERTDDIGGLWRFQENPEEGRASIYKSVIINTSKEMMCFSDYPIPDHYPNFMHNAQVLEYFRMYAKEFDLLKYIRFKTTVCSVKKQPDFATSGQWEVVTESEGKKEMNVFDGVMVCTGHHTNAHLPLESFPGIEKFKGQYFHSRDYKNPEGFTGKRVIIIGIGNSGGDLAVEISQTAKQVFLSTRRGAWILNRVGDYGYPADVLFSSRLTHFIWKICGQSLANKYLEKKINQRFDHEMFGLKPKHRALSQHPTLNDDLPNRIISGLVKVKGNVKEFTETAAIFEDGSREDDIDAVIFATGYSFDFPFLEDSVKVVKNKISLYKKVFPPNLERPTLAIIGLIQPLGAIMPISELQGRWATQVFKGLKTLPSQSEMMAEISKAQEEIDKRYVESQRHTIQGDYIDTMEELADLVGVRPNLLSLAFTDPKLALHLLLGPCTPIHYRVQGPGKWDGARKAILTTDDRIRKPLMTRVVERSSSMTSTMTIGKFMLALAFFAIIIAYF
As to the kind of experiment: Drug metabolism assessed as human recombinant FMO5-mediated ER-879123 formation at 10 uM after 60 mins by LC-MS/MS method in presence of NADPH. Type of series: ADME. Conditions: recombinant enzyme, 1 h.

The target in series [14] is T3, Flavin-containing monooxygenase 5. As to the kind of experiment: Drug metabolism assessed as human recombinant FMO5-mediated ER-879123 formation in presence NADH at 10 uM after 60 mins by LC-MS/MS method. Type of series: ADME. Particulars: recombinant enzyme, 1 h.

The structures appear in SMILES notation.

`O=C1CCN(Cc2ccc3c(c2)-c2n[nH]c(=O)c4cccc(c24)O3)CC1`: the Drug metabolism entry in series [1] is reported as “metabolite_not_detected”; in series [2] it was “metabolite_not_detected”; in series [3] it was “metabolite_not_detected”; in series [4] it was “metabolite_not_detected”; in the series on Liver microsome [5] it was “metabolite_detected”; in the series on Liver microsome [6], “metabolite_detected”. The Drug metabolism entry with Liver microsome [7] was “metabolite_not_detected”; in the series with Liver microsome [8] it was “metabolite_not_detected”; in the series with Liver microsome [9], “metabolite_detected”; in the series on Liver microsome [10], “metabolite_detected”; with Liver microsome [11] it was “metabolite_not_detected”; in the series with Liver microsome [12], “metabolite_not_detected”. Further, the Drug metabolism result in series [13] and in series [14] was “metabolite_detected” each time.
